The subject of one assay is rabbits. The experiment in a line: Penile erection index for rabbits in dependency on time (according to Bischof and Schneider). Type of assay: in vivo. The arrangement: penile erection index: scale not given here. Here is the method: (§1) The purpose of the study was to compare the biological activity of the compositions of the present invention with that of sildenafil. In particular, the erection episodes and penile erection indexes of the compounds and compositions in the treatment of male rats and rabbits were determined.
(§2) Details on the determination of PEI values can be found in e.g. H.H. Ang and M.K. Sim, Effects of Eurycoma longifilia Jack on Penile Erection Indes and Homosexual Mounting in Rats, Pharmaceutical Sciences, 3 (1997), 117-19; and A. Benassi-Benelli, F. Ferrari and B. Pellegrini Quaratotti, Penile erection Induced by Apomorphine and N-n-propyl-norapomorphine in Rats, Arch. Int. Pharmacodyn 242 (1979), 241-247. The episode is a description for rat sucking their penus.
(§3) Rabbit experiments where performed according to E. Bischof and K. Schneider, "International Journal of Impotence Research", 13 (2001) 230 - 235, and rat experiments where performed according to EP 1057829 A1.
Studying the penile erection index for rabbits in dependency on time yields the results given in table 1 for sildenafil and the compound (III).

The next assay deals with male rats. The experiment in a line: Erection episodes and Penile Erection Index (PEI) in male rats within 2 hours (according to EP 1057829 A1). The class given is in vivo. The note with it: 10 rats. Here is the method: as §1, §2, §3
Further, the effect on penile length of rats was studied and the following results are given in table 2 for a compound disclosed in the invention and in table 3 for sildenafil. The penile length is indicative of the efficacy of the administered medicament.

Each structure is given as a SMILES string.

For the compound `CCCc1nn(C)c2c(=O)[nH]c(-c3cc(S(=O)(=O)N4CCN(C)CC4)ccc3OCC)nc12` [Sildenafil, sildenafil], in the assay with rabbits (comparison of sildenafil, compound III and compositions), the “efficacy (penile erection index for rabbits), comparison in words” value is recorded as “greater efficacy than compounds III”. In addition, the penile erection index in the assay with rabbits (time 0 min) is reported as 0; with rabbits (time 5 min), 18.318; with rabbits (time 10 min) it was 16.694; in the assay on rabbits (time 15 min), 15.22; in the assay with rabbits (time 20 min), 13.108; in the assay with rabbits (time 30 min), 11.218. Further, the penile erection index with rabbits (time 40 min) worked out at 7.364; with rabbits (time 50 min) it was 2.94. For the same compound, the No. of episodes is given as 3 in the assay with male rats (dose 0.0781 mg/kg), 5 in the assay with male rats (dose 0.1562 mg/kg), 7 in the assay on male rats (dose 0.3125 mg/kg) and 14 in the assay on male rats (dose 0.6250 mg/kg). Besides, the PEI in the assay with male rats (dose 0.0781 mg/kg) is recorded as 90; in the assay with male rats (dose 0.1562 mg/kg), 150; in the assay with male rats (dose 0.3125 mg/kg), 350; in the assay with male rats (dose 0.6250 mg/kg), 980.

The values are drawn from patent publication EP1460077B1, “Novel pyrazolopyrimidones and their use as PDE inhibitors” (The Jordanian Pharmaceutical Manufacturing Co. Ltd., priority 2003, dated 2004).
